Source: patent US10844038B2, “1,2-dithiolane compounds useful in neuroprotection, autoimmune and cancer diseases and conditions” (SABILA BIOSCIENCES LLC, priority 2016, dated 2020)
Where two headings read alike, the source gives them in different places.

How the values were obtained:
[1] = molecular target: ARAF (Homo sapiens (Human), UniProt P10398); assay: Radioisotope filter binding assay; assay type: biochemical; details: read-out: IC50 Activity Levels Against MAPK Pathway Kinases: ARAF
Description: (§1) 3. Radioisotope Filter Binding Assay:
(§2) In this assay format, it directly detects the true product without the use of modified substrates or coupling enzymes (Uitdehaag, J. C., et al. Br. J. Pharmacol. 2012, 166, 858-876; Hastie, C. J., et al. Nat. Protoc. 2006, 1, 968-971) according to equation 1. Substrate+[γ−^33P]−ATP→^33P-Substrate+ADP eq 1
(§3) The protocol calls for test compound of the invention to be incubated with kinase, substrate, cofactors, and radio-isotope-labeled ATP (^33P-gamma-ATP). The reaction mixtures are then spotted onto filter papers which bind the radioisotope labeled catalytic product. Unreacted phosphate is removed via washing. The reagents used include base reaction buffer; 20 mM Hepes (pH 7.5), 10 mM MgCl2, 1 mM EGTA, 0.02% Brij35, 0.02 mg/ml BSA, 0.1 mM Na3VO4, 2 mM DTT, 1% DMSO. The reaction procedure include the following steps: (1) prepare indicated substrate in freshly prepared base reaction buffer, (2) deliver any required cofactors to the substrate solution above, (3) deliver indicated kinase into the substrate solution and gently mix, (4) deliver compounds in DMSO into the kinase reaction mixture by Acoustic technology (Echo550; nanoliter range), incubate for 20 minutes at room temperature, (5) deliver ^33P-ATP (specific activity 10 μCi/μL) into the reaction mixture to initiate the reaction, (6) incubate kinase reaction for 2 hours at room temperature, (7) reactions are spotted onto P81 ion exchange paper, (8) detect kinase activity by filter-binding method.

[2] = molecular target: FYN-Y531F (Homo sapiens (Human), UniProt P06241, Y531F); assay: Radioisotope filter binding assay; assay type: biochemical; details: read-out: IC50 Activity Levels Against FYN Mutant: FYN-Y531F
Description: as §1, §2, §3

[3] = molecular target: BRK (Homo sapiens (Human), UniProt Q13882); assay: Radioisotope filter binding assay; assay type: biochemical; details: read-out: IC50 Activity Levels Against FRK Family Kinases: BRK
Sequence of BRK (Q13882 whole entry): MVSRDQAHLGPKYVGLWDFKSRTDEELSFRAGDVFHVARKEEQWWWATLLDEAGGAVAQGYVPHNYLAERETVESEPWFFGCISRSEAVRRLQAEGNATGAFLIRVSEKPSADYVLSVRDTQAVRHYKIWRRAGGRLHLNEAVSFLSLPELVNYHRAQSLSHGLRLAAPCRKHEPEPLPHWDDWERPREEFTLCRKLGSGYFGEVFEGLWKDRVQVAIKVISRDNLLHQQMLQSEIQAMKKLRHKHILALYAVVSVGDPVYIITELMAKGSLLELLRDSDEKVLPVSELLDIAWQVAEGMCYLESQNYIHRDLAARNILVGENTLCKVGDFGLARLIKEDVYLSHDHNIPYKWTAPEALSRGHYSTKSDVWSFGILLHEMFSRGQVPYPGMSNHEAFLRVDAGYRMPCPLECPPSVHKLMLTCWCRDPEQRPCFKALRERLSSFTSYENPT
Description: as §1, §2, §3

[4] = molecular target: BLK (Homo sapiens (Human), UniProt P51451); assay: Radioisotope filter binding assay; assay type: biochemical; details: read-out: IC50 Activity Levels Against SRC Family Kinases: BLK
Sequence of BLK (P51451 whole entry): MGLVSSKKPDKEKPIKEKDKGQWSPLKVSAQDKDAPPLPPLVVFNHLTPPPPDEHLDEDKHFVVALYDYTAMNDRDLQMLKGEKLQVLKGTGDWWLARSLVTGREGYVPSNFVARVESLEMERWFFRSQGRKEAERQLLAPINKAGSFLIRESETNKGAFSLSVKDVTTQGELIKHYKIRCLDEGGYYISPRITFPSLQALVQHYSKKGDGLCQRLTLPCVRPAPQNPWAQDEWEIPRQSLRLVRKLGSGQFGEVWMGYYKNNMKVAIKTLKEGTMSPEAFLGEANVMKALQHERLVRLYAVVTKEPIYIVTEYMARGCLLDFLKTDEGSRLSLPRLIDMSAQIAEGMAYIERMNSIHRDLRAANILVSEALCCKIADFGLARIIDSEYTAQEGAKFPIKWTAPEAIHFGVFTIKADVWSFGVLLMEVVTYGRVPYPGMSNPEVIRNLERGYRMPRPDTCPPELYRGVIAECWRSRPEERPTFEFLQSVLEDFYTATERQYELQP
Description: as §1, §2, §3

[5] = molecular target: LYN (Homo sapiens (Human), UniProt P07948); assay: Radioisotope filter binding assay; assay type: biochemical; details: read-out: IC50 Activity Levels Against SRC Family Kinases: LYN
Sequence of LYN (P07948 whole entry): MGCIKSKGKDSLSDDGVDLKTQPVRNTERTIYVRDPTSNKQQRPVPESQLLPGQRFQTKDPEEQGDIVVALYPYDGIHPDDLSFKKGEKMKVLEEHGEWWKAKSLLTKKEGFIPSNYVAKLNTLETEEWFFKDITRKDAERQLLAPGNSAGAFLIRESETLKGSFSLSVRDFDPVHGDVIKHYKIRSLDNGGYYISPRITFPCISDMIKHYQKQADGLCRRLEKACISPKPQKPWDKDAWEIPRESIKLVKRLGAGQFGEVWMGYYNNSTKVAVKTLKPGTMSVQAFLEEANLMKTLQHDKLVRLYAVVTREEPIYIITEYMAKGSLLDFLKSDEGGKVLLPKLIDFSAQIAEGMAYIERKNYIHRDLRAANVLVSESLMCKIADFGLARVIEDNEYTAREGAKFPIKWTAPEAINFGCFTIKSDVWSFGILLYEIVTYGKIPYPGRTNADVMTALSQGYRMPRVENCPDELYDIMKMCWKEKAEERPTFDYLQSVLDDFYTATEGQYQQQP
Description: as §1, §2, §3

[6] = molecular target: BTK (Homo sapiens (Human), UniProt Q06187); assay: Radioisotope filter binding assay; assay type: biochemical; details: read-out: IC50 Activity Levels Against Representative TEC Family Kinases: BTK
Sequence of BTK (Q06187 whole entry): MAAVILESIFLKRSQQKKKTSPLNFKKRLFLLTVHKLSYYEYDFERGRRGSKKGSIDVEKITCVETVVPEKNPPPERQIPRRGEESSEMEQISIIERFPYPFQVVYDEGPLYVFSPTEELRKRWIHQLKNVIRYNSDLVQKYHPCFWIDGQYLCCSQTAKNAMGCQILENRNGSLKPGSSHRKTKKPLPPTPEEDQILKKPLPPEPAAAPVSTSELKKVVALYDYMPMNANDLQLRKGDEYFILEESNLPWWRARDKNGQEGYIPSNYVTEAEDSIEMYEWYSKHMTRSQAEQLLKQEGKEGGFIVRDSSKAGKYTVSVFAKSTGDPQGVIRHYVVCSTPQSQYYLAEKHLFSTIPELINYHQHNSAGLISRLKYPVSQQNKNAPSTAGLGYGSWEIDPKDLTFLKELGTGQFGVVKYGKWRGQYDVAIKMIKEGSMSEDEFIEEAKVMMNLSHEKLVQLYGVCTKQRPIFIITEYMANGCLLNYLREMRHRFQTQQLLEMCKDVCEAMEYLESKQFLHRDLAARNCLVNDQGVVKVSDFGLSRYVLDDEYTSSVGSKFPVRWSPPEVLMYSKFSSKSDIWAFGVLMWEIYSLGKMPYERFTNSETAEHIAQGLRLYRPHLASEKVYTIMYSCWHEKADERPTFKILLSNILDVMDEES
Description: as §1, §2, §3

[7] = molecular target: FGR (Homo sapiens (Human), UniProt P09769); assay: Radioisotope filter binding assay; assay type: biochemical; details: read-out: IC50 Activity Levels Against SRC Family Kinases: FGR
Sequence of FGR (P09769 whole entry): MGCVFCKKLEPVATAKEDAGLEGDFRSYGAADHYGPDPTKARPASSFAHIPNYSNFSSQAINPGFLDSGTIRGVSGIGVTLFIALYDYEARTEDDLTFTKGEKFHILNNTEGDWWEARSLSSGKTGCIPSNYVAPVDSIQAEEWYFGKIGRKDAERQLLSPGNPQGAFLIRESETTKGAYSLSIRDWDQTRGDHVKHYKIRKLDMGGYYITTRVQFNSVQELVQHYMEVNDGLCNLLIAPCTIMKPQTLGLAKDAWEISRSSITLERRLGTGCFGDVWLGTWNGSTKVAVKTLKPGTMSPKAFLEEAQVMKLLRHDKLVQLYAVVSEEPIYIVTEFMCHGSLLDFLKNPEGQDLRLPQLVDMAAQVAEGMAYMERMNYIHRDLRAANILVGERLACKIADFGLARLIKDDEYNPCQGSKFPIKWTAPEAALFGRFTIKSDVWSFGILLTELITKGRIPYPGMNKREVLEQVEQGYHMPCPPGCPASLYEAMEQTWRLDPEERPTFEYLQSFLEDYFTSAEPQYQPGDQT
Description: as §1, §2, §3

[8] = molecular target: Bruton Tyrosine Kinase (BTK) (Homo sapiens (Human), UniProt Q06187); assay: Rabbit reticulocyte lysate assay (KinaseSeeker competition binding); details: read-out: IC50 Activity Levels Against Bruton Tyrosine Kinase: BTK
Sequence of Bruton Tyrosine Kinase (BTK) (Q06187 whole entry): as the sequence (Q06187 whole entry) above
Description: 1. Rabbit Reticulocyte Lysate Assay Design:
KinaseSeeker is a homogeneous competition binding assay where the displacement of an active site dependent probe by an inhibitor is measured by a change in luminescence signal. Luminescence readout translates into a highly sensitive and robust assay with low background and minimal interference from test compounds.
10 mM stock solutions of test compounds were serially diluted in DMSO to make assay stocks. Prior to initiating IC50 determinations, the test compounds were evaluated for false positive against split-luciferase.
Each test compound was screened in duplicate against target kinase at 7 different concentrations. For kinase assays, Cfluc-kinase was translated along with Fos-Nfluc using a cell-free system (rabbit reticulocyte lysate) at 30° C. for 90 min. 24 uL aliquot of this lysate containing either 1 uL of DMSO (for no-inhibitor control) or compound solution in DMSO was incubated for 30 minutes at room temperature followed by 1 hour in presence of a kinase specific probe. 80 uL of luciferin assay reagent was added to each solution and luminescence was immediately measured on a luminometer.
The % Inhibition and % Activity Remaining was calculated using the following equation: % Inhibition=[(ALUControl−ALUSample)/ALUControl]×100 % Activity Remaining=100−% Inhibition
The % Activity was plotted against compound concentration and the IC50 was determined for each compound using a 7-point curve (Jester, B. W.; et. al. J. Am. Chem. Soc. 2010, 132, 11727-11735. Jester, B. W., et. al. J. Med. Chem. 2012, 55, 1526-1537). Biological activity of representative compounds of the disclosure are described in Table 5.

[9] = molecular target: mTOR (Homo sapiens (Human), UniProt P42345); assay: KINOMEscan competition binding assay (Kd); details: read-out: Kd Values Against mTOR Kinase: mTOR
Description: (§4) KINOMEscan™ is based on a competition binding assay that quantitatively measures the ability of a test compound of the invention to compete with an immobilized, active-site directed ligand. The Kinase assay is performed by combining three components: DNA-tagged kinase; immobilized ligand; and a test compound. The ability of the test compound to compete with the immobilized ligand is measured via quantitative PCR of the DNA tag.
(§5) For most assays, kinase-tagged T7 phage strains were prepared in an E. coli host derived from the BL21 strain. E. coli were grown to log-phase and infected with T7 phage and incubated with shaking at 32° C. until lysis. The lysates were centrifuged and filtered to remove cell debris. The remaining kinases were produced in HEK-293 cells and subsequently tagged with DNA for qPCR detection. Streptavidin-coated magnetic beads were treated with biotinylated small molecule ligands for 30 minutes at room temperature to generate affinity resins for kinase assays. The liganded beads were blocked with excess biotin and washed with blocking buffer (SeaBlock (Pierce), 1% BSA, 0.05% Tween 20, 1 mM DTT) to remove unbound ligand and to reduce nonspecific binding. […] All reactions were performed in polystyrene 96-well plates in a final volume of 0.135 ml. […] The kinase concentration in the eluates was measured by qPCR.

[10] = molecular target: MEK5 (Homo sapiens (Human), UniProt Q13163); assay: KINOMEscan competition binding assay (Kd)
Sequence of MEK5 (Q13163 whole entry): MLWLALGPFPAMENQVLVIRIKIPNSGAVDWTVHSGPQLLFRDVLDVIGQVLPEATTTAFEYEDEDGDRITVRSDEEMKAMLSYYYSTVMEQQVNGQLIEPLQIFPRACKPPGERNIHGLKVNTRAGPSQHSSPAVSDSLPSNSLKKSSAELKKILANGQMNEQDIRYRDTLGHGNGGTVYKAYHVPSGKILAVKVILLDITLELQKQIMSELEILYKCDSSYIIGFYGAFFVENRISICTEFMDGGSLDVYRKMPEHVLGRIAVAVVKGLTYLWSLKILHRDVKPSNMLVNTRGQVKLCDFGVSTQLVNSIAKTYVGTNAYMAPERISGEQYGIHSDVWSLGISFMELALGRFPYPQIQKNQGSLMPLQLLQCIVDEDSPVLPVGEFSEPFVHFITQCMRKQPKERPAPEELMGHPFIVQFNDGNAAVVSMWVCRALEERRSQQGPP
Description: as §4, §5

[11] = molecular target: YES1 (Homo sapiens (Human), UniProt P07947); assay: Kinase binding assay CaPBA; details: read-out: IC50 Activity Levels Against FYN isoforms, YES1 and MEK5: YES1
Sequence of YES1 (P07947 whole entry, canonical isoform): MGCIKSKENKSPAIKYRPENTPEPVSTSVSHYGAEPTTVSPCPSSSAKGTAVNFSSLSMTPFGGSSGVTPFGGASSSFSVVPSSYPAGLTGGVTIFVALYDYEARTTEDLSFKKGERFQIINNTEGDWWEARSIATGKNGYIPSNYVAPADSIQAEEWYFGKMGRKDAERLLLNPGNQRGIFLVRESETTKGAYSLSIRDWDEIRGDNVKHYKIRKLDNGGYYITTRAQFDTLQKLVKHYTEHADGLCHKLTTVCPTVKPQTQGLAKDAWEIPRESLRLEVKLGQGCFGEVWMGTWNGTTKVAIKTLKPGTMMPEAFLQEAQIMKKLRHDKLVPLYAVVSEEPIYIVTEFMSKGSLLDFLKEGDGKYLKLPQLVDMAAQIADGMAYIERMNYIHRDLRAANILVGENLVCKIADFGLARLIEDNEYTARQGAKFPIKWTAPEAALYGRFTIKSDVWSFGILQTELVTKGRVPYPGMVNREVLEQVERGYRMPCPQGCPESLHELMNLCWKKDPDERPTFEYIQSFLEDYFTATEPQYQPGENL
Source text: 4. Kinase Binding Assay CaPBA:

[12] = molecular target: MEK1 (Homo sapiens (Human), UniProt Q02750); assay: KINOMEscan competition binding assay (Kd); details: read-out: Kd Values Against MEK Kinases Isoforms: MEK1
Sequence of MEK1 (Q02750 whole entry, canonical isoform): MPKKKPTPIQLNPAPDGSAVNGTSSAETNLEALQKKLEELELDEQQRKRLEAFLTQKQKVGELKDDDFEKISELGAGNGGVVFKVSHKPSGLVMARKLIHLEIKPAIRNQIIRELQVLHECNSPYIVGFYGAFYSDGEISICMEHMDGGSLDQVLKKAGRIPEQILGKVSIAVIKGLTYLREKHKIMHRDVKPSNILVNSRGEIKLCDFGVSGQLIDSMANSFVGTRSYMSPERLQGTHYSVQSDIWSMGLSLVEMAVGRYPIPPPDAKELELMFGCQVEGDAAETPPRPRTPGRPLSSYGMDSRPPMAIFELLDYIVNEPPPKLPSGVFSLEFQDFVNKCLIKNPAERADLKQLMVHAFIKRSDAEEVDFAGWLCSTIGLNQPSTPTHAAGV
Description: as §4, §5

[13] = Table 12, read-out: Kd Values Against MEK Kinases Isoforms: MEK5

Sequence of ARAF (P10398 whole entry): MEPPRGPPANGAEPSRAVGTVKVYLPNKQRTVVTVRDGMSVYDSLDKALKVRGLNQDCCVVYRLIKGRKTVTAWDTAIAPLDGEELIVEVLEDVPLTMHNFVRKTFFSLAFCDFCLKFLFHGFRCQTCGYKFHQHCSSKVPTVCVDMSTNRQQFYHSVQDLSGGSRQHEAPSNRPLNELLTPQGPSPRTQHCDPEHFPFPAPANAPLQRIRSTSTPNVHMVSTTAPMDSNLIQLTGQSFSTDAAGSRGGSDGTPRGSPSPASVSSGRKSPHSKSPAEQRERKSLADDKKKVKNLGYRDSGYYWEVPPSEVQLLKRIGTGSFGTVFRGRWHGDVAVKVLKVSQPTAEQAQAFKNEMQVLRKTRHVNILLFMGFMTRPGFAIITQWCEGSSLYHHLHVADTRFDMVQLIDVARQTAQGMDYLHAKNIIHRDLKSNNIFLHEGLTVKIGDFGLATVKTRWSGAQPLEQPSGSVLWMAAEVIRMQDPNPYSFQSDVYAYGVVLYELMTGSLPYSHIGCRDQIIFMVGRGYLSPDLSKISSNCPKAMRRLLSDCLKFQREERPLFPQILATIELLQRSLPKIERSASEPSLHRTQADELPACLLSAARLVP

| IC50 [1] [nM] | IC50 [2] [nM] | IC50 [3] [nM] | IC50 [4] [nM] | IC50 [5] [nM] | IC50 [6] [nM] | IC50 [7] [nM] | IC50 [8] [nM] | Kd [9] [nM] | Kd ([10]; Table 9, read-out: Kd Values Against Representative MEK5 Kinase: MEK5) [nM] | IC50 [11] [nM] | Kd [12] [nM] | Kd [10, 13] [nM] | Compound |
| --- | --- | --- | --- | --- | --- | --- | --- | --- | --- | --- | --- | --- | --- |
| 100 to 999 | 5 to 99 | 5 to 99 | < 5 | 5 to 99 | 5 to 99 | < 5 | 1000 to 10000 | 1000 to 10000 | < 5 | < 5 |  |  | Nc1ncnc2c1c(-c1ccc(Oc3ccccc3)cc1)nn2C[C@@H]1SSC[C@H]1O [43 A.] |
|  | 100 to 999 | 5 to 99 | 5 to 99 | 5 to 99 | 5 to 99 | < 5 | 100 to 999 | 100 to 999 |  | < 5 | 5 to 99 | < 5 | Nc1ncnc2c1c(-c1ccc(Oc3ccccc3)cc1)nn2C[C@H]1SSC[C@@H]1O [43 B.] |
| 1000 to 10000 | 5 to 99 | 5 to 99 | 5 to 99 | 100 to 999 | 5 to 99 | 5 to 99 | 1000 to 10000 | 100 to 999 |  |  | 100 to 999 | < 5 | Nc1ncnc2c1c(-c1ccc(Oc3ccccc3)cc1)nn2C[C@@H]1SSC[C@@H]1O [46 A.] |
| 100 to 999 | 5 to 99 | 5 to 99 | < 5 | 5 to 99 | 5 to 99 | < 5 | 1000 to 10000 | 100 to 999 |  | < 5 | 5 to 99 | < 5 | Nc1ncnc2c1c(-c1ccc(Oc3ccccc3)cc1)nn2C[C@H]1SSC[C@H]1O [46 B.] |
